Data: US6066672A, “Amino compounds and angiotensin IV receptor agonists” (Taisho Pharmaceutical Co., Ltd., priority 1996, dated 2000)
Where a name gives a salt, the structure may show the parent alone.

Target: T1, angiotensin IV receptor (Cavia porcellus, UniProt H0VNM7)
T1 construct: The Hartley guinea pig hippocampus was homogenized in a 50 mM Tris hydrochloride buffer solution; from tissue; host or cells: Hartley guinea pig hippocampus, crude membrane (48,000 x g precipitate)
T1 sequence (H0VNM7 1-1025): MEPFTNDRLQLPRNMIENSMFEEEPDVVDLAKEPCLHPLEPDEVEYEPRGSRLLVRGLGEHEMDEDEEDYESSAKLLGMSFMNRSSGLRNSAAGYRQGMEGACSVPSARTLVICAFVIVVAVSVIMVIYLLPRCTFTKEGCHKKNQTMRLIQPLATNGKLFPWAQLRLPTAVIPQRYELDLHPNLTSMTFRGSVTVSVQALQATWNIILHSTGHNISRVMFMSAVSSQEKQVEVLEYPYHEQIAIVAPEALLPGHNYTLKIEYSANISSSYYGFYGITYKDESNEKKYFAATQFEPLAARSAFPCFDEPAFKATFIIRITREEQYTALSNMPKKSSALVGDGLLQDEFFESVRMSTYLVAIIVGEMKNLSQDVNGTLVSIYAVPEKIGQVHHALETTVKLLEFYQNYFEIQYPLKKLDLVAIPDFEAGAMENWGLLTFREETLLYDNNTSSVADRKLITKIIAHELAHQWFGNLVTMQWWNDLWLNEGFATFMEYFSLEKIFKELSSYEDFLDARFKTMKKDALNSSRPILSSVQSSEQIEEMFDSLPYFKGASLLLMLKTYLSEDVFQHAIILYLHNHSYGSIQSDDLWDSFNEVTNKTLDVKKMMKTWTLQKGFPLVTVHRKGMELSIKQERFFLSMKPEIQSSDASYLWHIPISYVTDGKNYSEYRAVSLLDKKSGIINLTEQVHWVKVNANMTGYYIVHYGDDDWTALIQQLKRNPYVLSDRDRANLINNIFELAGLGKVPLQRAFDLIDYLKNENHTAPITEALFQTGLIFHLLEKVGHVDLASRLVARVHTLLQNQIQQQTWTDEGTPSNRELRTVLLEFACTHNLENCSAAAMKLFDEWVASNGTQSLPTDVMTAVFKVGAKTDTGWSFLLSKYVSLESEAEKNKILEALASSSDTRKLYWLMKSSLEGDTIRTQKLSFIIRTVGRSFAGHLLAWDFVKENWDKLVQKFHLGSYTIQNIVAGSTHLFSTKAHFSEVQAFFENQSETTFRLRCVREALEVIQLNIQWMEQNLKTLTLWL
Assay: binding capability to angiotensin IV receptor, inhibition of 125I-angiotensin IV binding to guinea pig hippocampus membrane
Settings: 0.2 nM 125I-angiotensin IV, Hartley guinea pig hippocampus crude membrane, 37° C., 90 minutes, pH 7.4
Procedure: The binding capability to angiotensin IV receptor was measured by using Hartley guinea pig hippocampus referring to the method described by Miller-Wing et al., J. Pharmacol. Exp. Ther., vol. 266, pp.1718 (1993). The Hartley guinea pig hippocampus was homogenized in a 50 mM Tris hydrochloride buffer solution (pH 7.4) containing 1 mM ethylenediamine-N,N,N',N'-tetraacetic acid (EDTA) and 100 μM phenylmethanesulfonyl fluoride (PMSF). After centrifugation at 900× g, the resulting supernatant was further centrifuged at 48,000× g. The precipitate was washed once with the same buffer solution and suspended in 50 mM Tris hydrochloride buffer solution (pH 7.4) containing 150 mM sodium chloride, 1 mM EDTA, 100 μM PMSF and 0.1% bovine serum albumin (BSA) to give a protein concentration of […] as a crude membrane specimen. […] The radioactivity on the filter paper was measured by using a gamma-counter. The non-specific bond was measured in the presence of 1 μM angiotensin IV, and the specific bond was calculated by subtracting the non-specific bond from the total bond.

| Compound | IC50 [nM] |
| --- | --- |
| CCCC[C@H](N)CN[C@@H](Cc1ccc(O)cc1)C(=O)N[C@H](CCc1ccc(C)cc1)[C@@H](C)CC [Example 2, N'-[(S)-2-aminohexyl]-N-[(1R,2S)-2-methyl-1-[2-(4-methylphenyl)ethyl]butyl]-L-tyrosinamide dihydrochloride] | 4.13 |
| CCCCC[C@@H](NC(=O)[C@H](Cc1ccc(O)cc1)NC[C@@H](N)CCCC)[C@@H](C)CC [Example 4, N'-[(S)-2-aminohexyl]-N-[(R)-1-[(S)-1-methylpropyl]hexyl]-L-tyrosinamide dihydrochloride] | 11.5 |
| CCCC[C@H](N)CN[C@@H](Cc1ccc(O)cc1)C(=O)N[C@H](CCCc1ccccc1)CC(C)C [Example 6, N'-[(S)-2-aminohexyl]-N-[(R)-3-methyl-1-(3-phenylpropyl)butyl]-L-tyrosinamide dihydrochloride] | 18.3 |
| CCCC[C@H](N)CN[C@@H](Cc1ccc(O)cc1)C(=O)N[C@@H](/C=C/c1ccncc1)CC(C)C [Example 9, N'-[(S)-2-aminohexyl]-N-[(R)-(E)-1-(2-methylpropyl)-3-(4-pyridyl)-2-propenyl]-L-tyrosinamide trihydrochloride] | 22.1 |
| CCCC[C@H](N)CN[C@@H](Cc1ccc(O)cc1)C(=O)N[C@H](CCc1ccc(C(=O)OC)cc1)CC(C)C [Example 12, N'-[(S)-2-aminohexyl]-N-[(R)-1-[2-(4-methoxycarbonylphenyl)ethyl]-3-methylbutyl]-L-tyrosinamide dihydrochloride] | 35.1 |
| CCCC[C@H](N)CN[C@@H](Cc1ccc(O)cc1)C(=O)N[C@H](/C=C/c1ccc(C(=O)O)cc1)CC(C)C [Example 13, N'-[(S)-2-aminohexyl]-N-[(S)-(E)-3-(4-carboxyphenyl)-1-(2-methylpropyl)-2-propenyl]-L-tyrosinamide dihydrochloride] | 1.79 |
| CCCC[C@H](N)CN[C@@H](Cc1ccc(O)cc1)C(=O)N[C@H](/C=C/c1cccc2ccccc12)CC(C)C [Example 15, N'-[(S)-2-aminohexyl]-N-[(S)-(E)-1-(2-methylpropyl)-3-(1-naphthyl)-2-propenyl]-L-tyrosinamide dihydrochloride] | 3.76 |
| CCCC[C@H](N)CN[C@@H](Cc1ccc(O)cc1)C(=O)N[C@H](CCc1cccc2ccccc12)CC(C)C [Example 16, N'-[(S)-2-aminohexyl]-N-[(R)-3-methyl-1-[2-(1-naphthyl)ethyl]butyl]-L-tyrosinamide dihydrochloride] | 3.43 |
| CCCC[C@H](N)CN[C@@H](Cc1ccc(O)cc1)C(=O)N[C@H](/C=C/c1ccccc1)CC(C)C [Example 17, N'-[(S)-2-aminohexyl]-N-[(S)-(E)-1-(2-methylpropyl)-3-phenyl-2-propenyl]-L-tyrosinamide dihydrochloride] | 0.65 |
| CCCC[C@H](N)CN[C@@H](Cc1ccc(O)cc1)C(=O)N[C@H](CCc1ccccc1)CC(C)C [Example 18, N'-[(S)-2-aminohexyl]-N-[(R)-3-methyl-1-[2-phenylethyl]butyl]-L-tyrosinamide dihydrochloride] | 8.7 |
| CCCC[C@H](N)CN[C@@H](Cc1ccc(O)cc1)C(=O)N[C@H](/C=C/c1ccc2ccccc2n1)CC(C)C [Example 23, N'-[(S)-2-aminohexyl]-N-[(S)-(E)-3-(2-quinolyl)-1-(2-methylpropyl)-2-propenyl]-L-tyrosinamide trihydrochloride] | 0.53 |
| CCCC[C@H](N)CN[C@@H](Cc1ccc(O)cc1)C(=O)N[C@H](CCc1ccc2ccccc2n1)CC(C)C [Example 24, N'-[(S)-2-aminohexyl]-N-[(R)-3-methyl-1-[2-(2-quinolyl)ethyl]butyl]-L-tyrosinamide dihydrochloride] | 3.77 |

The remaining compounds from weak to strong by IC50, led by results:

| IC50 [nM] | Compound |
| --- | --- |
| 89 | CCCC[C@H](N)CN[C@@H](Cc1ccc(O)cc1)C(=O)N[C@H](CCc1ccc(-c2ccccc2)cc1)CC(C)C [Example 22, N'-[(S)-2-aminohexyl]-N-[(R)-1-[2-([1,1'-biphenyl]-4-yl)ethyl]-3-methylbutyl]-L-tyrosinamide dihydrochloride] |
| 89 | C=C[C@H](CC(C)C)NC(=O)[C@H](Cc1ccc(O)cc1)NC[C@@H](N)CCCC [Example 25, N'-[(S)-2-aminohexyl]-N-[(S)-1-(2-methylpropyl)-2-propenyl]-L-tyrosinamidedihydrochloride] |
| 81.1 | CCCC[C@H](N)CN[C@@H](Cc1ccc(O)cc1)C(=O)N[C@@H](CCc1ccncc1)CC(C)C [Example 10, N'-[(S)-2-aminohexyl]-N-[(S)-3-methyl-1-[2-(4-pyridyl)ethyl]butyl]-L-tyrosinamide trihydrochloride] |
| 26.6 | CCCC[C@H](N)CN[C@@H](Cc1ccc(O)cc1)C(=O)N[C@H](CCc1ccc(C(=O)O)cc1)CC(C)C [Example 14, N'-[(S)-2-aminohexyl]-N-[(R)-3-methyl-1-[2-(4-carboxyphenyl)ethyl]butyl]-L-tyrosinamide dihydrochloride] |
| 15.2 | CCCC[C@H](N)CN[C@@H](Cc1ccc(O)cc1)C(=O)N[C@H](CCc1ccncc1)CC(C)C [Example 8, N'-[(S)-2-aminohexyl]-N-[(R)-3-methyl-1-[2-(4-pyridyl)ethyl]butyl]-L-tyrosinamide trihydrochloride] |
| 12.6 | CCC/C=C\[C@@H](NC(=O)[C@H](Cc1ccc(O)cc1)NC[C@@H](N)CCCC)[C@@H](C)CC [Example 3, N'-[(S)-2-aminohexyl]-N-[(S)-(Z)-1-[(S)-1-methylpropyl]-2-hexenyl]-L-tyrosinamide dihydrochloride] |
| 7.22 | CCCC[C@H](N)CN[C@@H](Cc1ccc(O)cc1)C(=O)N[C@H](/C=C\Cc1ccccc1)CC(C)C [Example 5, N'-[(S)-2-aminohexyl]-N-[(S)-(Z)-1-(2-methylpropyl)-4-phenyl-2-butenyl]-L-tyrosinamide dihydrochloride] |
| 6 | CCCC[C@H](N)CN[C@@H](Cc1ccc(O)cc1)C(=O)N[C@H](/C=C/c1ccc(-c2ccccc2)cc1)CC(C)C [Example 21, N'-[(S)-2-aminohexyl]-N-[(S)-(E)-3-([1,1'-biphenyl]-4-yl)-1-(2-methylpropyl)-2-propenyl]-L-tyrosinamide dihydrochloride] |
| 5.46 | CCCC[C@H](N)CN[C@@H](Cc1ccc(O)cc1)C(=O)N[C@H](/C=C\c1ccc(Cl)cc1)CC(C)C [Example 20, N'-[(S)-2-aminohexyl]-N-[(S)-(Z)-3-(4-chlorophenyl)-1-(2-methylpropyl)-2-propenyl]-L-tyrosinamide dihydrochloride] |
| 1.23 | CCCC[C@H](N)CN[C@@H](Cc1ccc(O)cc1)C(=O)N[C@H](/C=C/c1ccc(C(=O)OC)cc1)CC(C)C [Example 11, N'-[(S)-2-aminohexyl]-N-[(S)-(E)-3-(4-methoxycarbonylphenyl)-1-(2-methylpropyl)-2-propenyl]-L-tyrosinamide dihydrochloride] |
| 0.93 | CCCC[C@H](N)CN[C@@H](Cc1ccc(O)cc1)C(=O)N[C@H](/C=C/c1ccncc1)CC(C)C [Example 7, N'-[(S)-2-aminohexyl]-N-[(S)-(E)-1-(2-methylpropyl)-3-(4-pyridyl)-2-propenyl]-L-tyrosinamide trihydrochloride] |
| 0.59 | CCCC[C@H](N)CN[C@@H](Cc1ccc(O)cc1)C(=O)N[C@H](/C=C/c1ccc(C)cc1)[C@@H](C)CC [Example 1, N'-[(S)-2-aminohexyl]-N-[(S)-(E)-3-(4-methylphenyl)-1-[(S)-1-methylpropyl]-2-propenyl]-L-tyrosinamide dihydrochloride] |
| 0.53 | CCCC[C@H](N)CN[C@@H](Cc1ccc(O)cc1)C(=O)N[C@H](/C=C/c1ccc(Cl)cc1)CC(C)C [Example 19, N'-((S)-2-aminohexyl]-N-[(S)-(E)-3-(4-chlorophenyl)-1-(2-methylpropyl)-2-propenyl]-L-tyrosinamide dihydrochloride] |
